Laboratory results published in US20040077634A1, “Treatment of diseases characterized by excessive or insufficient cell death” (priority 2001, published 2004).
Residues, ends and D or L forms follow the SMILES beside them. *: point of attachment. Cbz = O=C(OCc1ccccc1)*; CH2F = FC*

Tests used:
MCF-neo cells = assay: TNF-induced cell death of MCF-neo cells; type: cell-based
Method: (§1) The ability of compound f to inhibit cell death was examined in MCF-neo and MCF-casp3 cells. […] To analyse the mechanism of the action of compound f in alive cells, MCF-casp3 cells were treated with TNF (5 ng/ml) in the presence of 50 μM compound f and the activity of caspase-3-like proteases was measured by a DEVDase enzyme assay.

MCF-casp3 cells = assay: TNF-induced cell death of MCF-casp3 cells
Method: as §1

recombinant caspase-9 = target: T1, recombinant caspase-9 (Homo sapiens, UniProt P55211); assay: Recombinant caspase-9 activity, cleavage of LEHD-AFC; type: biochemical
T1 sequence (P55211 1-315 limits assumed): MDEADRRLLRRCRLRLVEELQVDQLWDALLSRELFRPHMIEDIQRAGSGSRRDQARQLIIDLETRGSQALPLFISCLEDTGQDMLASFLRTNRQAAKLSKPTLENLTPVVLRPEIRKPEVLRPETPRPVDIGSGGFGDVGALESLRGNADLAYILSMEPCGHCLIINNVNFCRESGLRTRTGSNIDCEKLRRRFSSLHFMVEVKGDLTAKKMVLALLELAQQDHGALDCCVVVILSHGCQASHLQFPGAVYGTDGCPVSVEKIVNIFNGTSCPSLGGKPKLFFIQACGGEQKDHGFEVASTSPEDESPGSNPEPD
T1 sequence (P55211 331-416 limits assumed): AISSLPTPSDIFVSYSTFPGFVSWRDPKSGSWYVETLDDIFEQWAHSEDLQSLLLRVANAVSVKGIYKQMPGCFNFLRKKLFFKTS
Method: The inhibition of the DEVDase activity in the in vitro caspase activation system could be due to a direct inhibition of caspase-9, -3, or -7 activities, or to the inhibition of the apoptosome formation. To test if compounds a, f, and g were specific caspase inhibitors, recombinant caspase-3 and caspase-9 were incubated with the three compounds and the enzymatic activities of caspases were monitored by analysing the cleavage of the caspase-3 substrate DEVD-AFC or the caspase-9 substrate LEHD-AFC, respectively.

[1] = tested on: caspase-9, caspase-3 and caspase-7 processing; DFF45/ICAD and PARP cleavage; assay: Processing of caspases and caspase substrates in Cc/dATP-stimulated cell extract, Western blotting; type: biochemical; conditions: cell extracts stimulated with Cc/dATP; Western blot; dose dependence
Method: Activation of endogene caspases is induced by addition of 1 mM dATP and 1 μM horse heart cytochrome c to cytosolic extract (protein concentration; 5-10 mg/ml) in the presence of DEVD-AFC and the compound (final concentration 100 μM). Activated DEVD'ases (AFC release) is measured by fluorometry in 96-well plates at 37° C. After end measurements 2× LSB-Mechaptoethanol are added to the samples for assessment of caspase processing by immunoblot analysis.
Next, the effect of the compounds on the processing of caspases and caspase substrates in the in vitro model system was analysed by Western blotting. Caspase-9, caspase-3 and caspase-7 were processed into p35, p17, and p20 active fragments, respectively, in response to Cc/dATP. Accordingly, Cc/dATP induced a threefold induction in DEVDase activity and cleavage of the caspase-3 substrates DFF45/ICAD and PARP.

recombinant caspase-3 = target: T2, recombinant caspase-3 (Homo sapiens, UniProt P42574); assay: Recombinant caspase-3 activity, cleavage of DEVD-AFC; type: biochemical
T2 sequence (P42574 29-175 limits assumed): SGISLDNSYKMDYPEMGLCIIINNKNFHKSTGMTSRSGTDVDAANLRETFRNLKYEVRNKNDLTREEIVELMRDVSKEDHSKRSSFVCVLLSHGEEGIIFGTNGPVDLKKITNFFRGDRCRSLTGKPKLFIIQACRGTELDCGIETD
T2 sequence (P42574 176-277 limits assumed): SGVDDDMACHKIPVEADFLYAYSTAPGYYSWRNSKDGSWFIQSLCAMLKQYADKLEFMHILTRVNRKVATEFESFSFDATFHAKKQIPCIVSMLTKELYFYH
Method: To test if compounds a, f, and g were specific caspase inhibitors, recombinant caspase-3 and caspase-9 were incubated with the three compounds and the enzymatic activities of caspases were monitored by analysing the cleavage of the caspase-3 substrate DEVD-AFC or the caspase-9 substrate LEHD-AFC, respectively.

[2] = tested on: DEVDase (caspase-3-like protease); assay: Inhibition of DEVDase in cytochrome c/dATP-activated Hela cytosolic extract (method 1); type: biochemical; conditions: compound final concentration 100 μM; 1 mM dATP and 1 μM cytochrome c; DEVD-AFC
Method: Hela cells are grown in large petri dishes until subconfluency. Cells are then harvested and washed in PBS. The cell pellet is resuspended in equal volumes of ice-cold isotonic lysisbuffer (SCA; 20 mM Hepes-KOH pH 7.5, 10 mM KCl, 1.5 mM MgCl2, 1 mM EDTA, 1 mM EGTA, 250 mM sucrose, 1 mM DTT, 10 μg/ml aprotinin, 1 μg/ml leupeptin, 1 μg/ml pepstatin A, 100 μg/ml peta-block), incubated on ice for 30 min and lysed by approx. 30 strokes of a dounce homogenizer. The lysate is then centrifuged at 750 g for 10 min, and the supernatant thereof at 10,000 g for 10 min and at 20,000 g for 30 min. The clarified supernatant is removed carefully and stored in aliquots at −80° C. Activation of endogene caspases is induced by addition of 1 mM dATP and 1 μM horse heart cytochrome c to cytosolic extract (protein concentration; 5-10 mg/ml) in the presence of DEVD-AFC and the compound (final concentration 100 μM). Activated DEVD'ases (AFC release) is measured by fluorometry in 96-well plates at 37° C. After end measurements 2× LSB-Mechaptoethanol are added to the samples for assessment of caspase processing by immunoblot analysis. Percent inhibition is calculated as follows: [formula]

[3] = target: T3, apoptosome complex (Apaf-1 and caspase-9) (Homo sapiens, UniProt O14727+P55211); assay: Apoptosome formation: co-immunoprecipitation of Apaf-1 with caspase-9 in cell extract; type: binding; conditions: 1 μM zVAD-fmk, 1 hour with Cc/dATP prior to IP
T3 construct: Caspase-9 antibody precipitated practically all caspase-9 present in the cell extract; endogenous in cells; host or cells: cell extract
T3 sequence (O14727 1-1248): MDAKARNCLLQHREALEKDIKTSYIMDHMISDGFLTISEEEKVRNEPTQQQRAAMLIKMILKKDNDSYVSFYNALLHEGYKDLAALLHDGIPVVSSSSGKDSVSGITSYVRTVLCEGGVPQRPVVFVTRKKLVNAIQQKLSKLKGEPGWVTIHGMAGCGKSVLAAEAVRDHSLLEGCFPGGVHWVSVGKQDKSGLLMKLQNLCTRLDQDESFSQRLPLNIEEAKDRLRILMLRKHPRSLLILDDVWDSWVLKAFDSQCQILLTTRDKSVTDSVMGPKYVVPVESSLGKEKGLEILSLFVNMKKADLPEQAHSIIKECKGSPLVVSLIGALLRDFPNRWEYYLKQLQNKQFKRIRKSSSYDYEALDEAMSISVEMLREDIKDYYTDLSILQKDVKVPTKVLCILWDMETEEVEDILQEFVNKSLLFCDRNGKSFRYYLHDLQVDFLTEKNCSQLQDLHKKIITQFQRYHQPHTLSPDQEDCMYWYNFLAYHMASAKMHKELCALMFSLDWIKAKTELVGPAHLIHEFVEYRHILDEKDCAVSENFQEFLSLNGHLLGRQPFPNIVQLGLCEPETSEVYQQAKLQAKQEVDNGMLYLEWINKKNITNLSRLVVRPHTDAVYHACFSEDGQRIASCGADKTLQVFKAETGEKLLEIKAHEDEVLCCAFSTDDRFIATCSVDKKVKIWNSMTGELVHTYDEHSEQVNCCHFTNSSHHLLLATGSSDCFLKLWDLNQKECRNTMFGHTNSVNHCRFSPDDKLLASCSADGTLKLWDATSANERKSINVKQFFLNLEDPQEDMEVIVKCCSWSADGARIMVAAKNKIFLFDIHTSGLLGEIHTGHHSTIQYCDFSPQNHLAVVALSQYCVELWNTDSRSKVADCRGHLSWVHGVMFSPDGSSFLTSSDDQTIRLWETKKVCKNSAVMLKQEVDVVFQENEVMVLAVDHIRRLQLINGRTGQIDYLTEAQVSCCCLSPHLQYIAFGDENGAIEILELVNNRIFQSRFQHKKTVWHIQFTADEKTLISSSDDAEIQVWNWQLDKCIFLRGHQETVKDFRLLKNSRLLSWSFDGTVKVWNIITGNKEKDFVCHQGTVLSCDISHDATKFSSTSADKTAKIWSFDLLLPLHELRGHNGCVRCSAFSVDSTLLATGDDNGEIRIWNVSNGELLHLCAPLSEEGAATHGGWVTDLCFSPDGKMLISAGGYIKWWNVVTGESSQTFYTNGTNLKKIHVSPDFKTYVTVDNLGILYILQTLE
T3 sequence (P55211 1-416): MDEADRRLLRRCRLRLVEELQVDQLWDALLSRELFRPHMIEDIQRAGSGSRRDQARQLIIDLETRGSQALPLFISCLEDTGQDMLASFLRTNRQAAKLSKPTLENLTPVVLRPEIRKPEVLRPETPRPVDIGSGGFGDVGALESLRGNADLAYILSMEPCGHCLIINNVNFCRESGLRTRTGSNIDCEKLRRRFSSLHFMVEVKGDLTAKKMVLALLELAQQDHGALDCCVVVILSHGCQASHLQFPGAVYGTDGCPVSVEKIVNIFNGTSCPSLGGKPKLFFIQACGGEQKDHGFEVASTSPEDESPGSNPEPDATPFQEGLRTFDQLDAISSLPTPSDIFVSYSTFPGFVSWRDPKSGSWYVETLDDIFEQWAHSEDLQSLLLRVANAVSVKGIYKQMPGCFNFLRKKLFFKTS
Method: Next, it was tested whether compound f interferes with the formation of apoptosome complex in response to Cc/dATP. Cell extracts were incubated with Cc/dATP in the presence or absence of 100 μM compound f or 1 μM zVAD-fmk for 1 hour prior to the immunoprecipitation (IP) of caspase-9. […] Hsp90, which has been proposed to associate with Apaf-1 and prevent oligomerization and caspase-9 recruitment, was not co-immunoprecipitated with caspase-9.

[4] = 25 to 100 μM, LEHD-AFC substrate
[5] = 25 to 100 μM, DEVD-AFC substrate

**Q.** What does the source list for CC(=O)N[C@@H](CC(=O)O)C(=O)N[C@@H](CCC(=O)O)C(=O)N[C@H](C(=O)N[C@H](C=O)CC(=O)O)C(C)C [DEVD-CHO, reference compound]?
**A.** cell death induced by TNF (MCF-neo cells; 1 ng/ml TNF, 200 μM DEVD-CHO): blocked; protection against TNF (MCF-neo cells; 5 ng/ml TNF, 200 μM DEVD-CHO): significant protection; cell death induced by TNF (MCF-casp3 cells; 1 ng/ml TNF, 200 μM DEVD-CHO): blocked; protection against TNF (MCF-casp3 cells; 5 ng/ml TNF, 200 μM DEVD-CHO): significant protection; inhibition of recombinant caspase-9 activity (recombinant caspase-9; 0.1 μM DEVD-CHO): almost total inhibition

**Q.** With COC(=O)c1cc(NC(=O)Nc2cccc(C(F)(F)F)c2)c(O)cc1[N+](=O)[O-] [a, [N-(2-Hydroxy-5-methoxycarbonyl-4-nitrophenyl)-N′-(3-trifluoromethylphenyl)]urea] as the compound, how does the “inhibition of recombinant caspase-9 activity” value (recombinant caspase-9; [4]) read?
**A.** Its value is “failed to inhibit”.

**Q.** What about the “inhibition of caspase-9, -3 and -7 processing and DFF45/ICAD and PARP cleavage” value [1] of the same compound?
**A.** Its value is “dose-dependent inhibition”.

**Q.** And the “inhibition of recombinant caspase-3 activity” value (recombinant caspase-3; [5])?
**A.** Its value is “failed to inhibit”.

**Q.** And the “% Inhibition” value [2]?
**A.** The value was 80%.

**Q.** What does the source list for CN1[C@H]2CC[C@@H]1[C@@H](c1nc(-c3cccs3)no1)[C@@H](c1ccc3ccccc3c1)C2.Cl [c, (1R,2S,3S)-2-[3-(2-Thienyl)-1,2,4-oxadiazol-5-yl]-3-(2-naphthyl)-tropane hydrochloric acid salt]?
**A.** melting point: 149 to 150 °C; % Inhibition [2]: 60%

**Q.** Which “% Inhibition” value [2] does the source give for c1ccc(-c2cccc(-n3cnc4ccccc43)c2)cc1 [d, 1-(3-Biphenyl)-benzimidazole] here?
**A.** Its value is 58%.

**Q.** Which “% Inhibition” value [2] does the source give for O=c1onc2cnc3cc([N+](=O)[O-])ccc3n12 [e, 7-Nitro-1,2,4-oxadiazolo[3,4-d]benz[b]-1,4-diazin-1-one] here?
**A.** The value was 63%.

**Q.** For O=C(Nc1cccc(C(F)(F)F)c1)Nc1ccc(O)cc1O [g, [N-(2,4-Dihydroxyphenyl)-N′-(3-trifluoromethylphenyl)]urea], which “inhibition of recombinant caspase-9 activity” value (recombinant caspase-9; [4]) is on record?
**A.** Its value is “failed to inhibit”.

**Q.** And the “inhibition of caspase-9, -3 and -7 processing and DFF45/ICAD and PARP cleavage” value [1]?
**A.** The value was “dose-dependent inhibition”.

**Q.** And the “inhibition of recombinant caspase-3 activity” value (recombinant caspase-3; [5])?
**A.** The value was “failed to inhibit”.

**Q.** What about the “% Inhibition” value [2] of the same compound?
**A.** Its value is 74%.

**Q.** Which TNF-induced death (MCF-neo cells; 50 μM zVAD-fmk) does the source give for COC(=O)C[C@H](NC(=O)[C@H](C)NC(=O)[C@@H](NC(=O)OCc1ccccc1)C(C)C)C(=O)CF [zVAD-fmk, reference compound] (Cbz-Val-Ala-Asp(OMe)-CH2F) here?
**A.** Its TNF-induced death is “blocked completely”.

**Q.** And the TNF-induced death (MCF-casp3 cells; 50 μM zVAD-fmk)?
**A.** The TNF-induced death was “blocked completely”.

**Q.** And the “inhibition of recombinant caspase-9 activity” value (recombinant caspase-9; 1 μM zVAD-fmk)?
**A.** Its value is “almost total inhibition”.

**Q.** What about the “inhibition of recombinant caspase-3 activity” value (recombinant caspase-3; 1 μM zVAD-fmk) of the same compound?
**A.** The value was “almost total inhibition”.

**Q.** What about the “co-immunoprecipitation of Apaf-1 with caspase-9” value [3] of the same compound?
**A.** Its value is “efficiently co-immunoprecipitated”.
